Source: the METLIN SMRT retention time set (Domingo-Almenara et al. 2019)

Experiment: gradient 5% acetonitrile 3 min, to 50% in 2 min, to 85% in 15 min, held 3 min, 100 µL/min
Settings: column: Zorbax Extend-C18 2.1 x 50 mm; eluents: water / acetonitrile, 0.1% formic acid
In short: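 Retention times of pure standards were taken from adduct peaks that were selected by computer and manually inspected. Over 3 months, mixtures of ~100 molecules were run by HPLC–quadrupole time-of-flight mass spectrometry in positive and negative ionization mode. The Zorbax Extend-C18 column (2.1 × 50 mm, 1.8 μm) ran at 100 μL/min in water and acetonitrile, each containing 0.1% formic acid, with 40 μL dead volume and 900 μL dwell volume.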

| Compound | RP-LC retention time [s] |
| --- | --- |
| Cc1c(-c2noc(-c3ccc(N(C)C)cc3)n2)nnn1-c1ccc(F)cc1 | 1040 |
| CCCN1CCn2cc(S(=O)(=O)Nc3ccc(C)cc3)cc2C1=O | 771 |
| O=C(CCC1CCCC1)N1CCc2c([nH]c3ccccc23)C1c1ccc(F)cc1 (stereo not drawn) | 1410 |
| CC(=O)N1CCc2cc(N3CC(C(=O)Nc4ccc(F)cc4C)CC3=O)ccc21 (stereo not drawn) | 690 |
| CC(C)(C)c1ccc(-c2noc(Cn3c(=O)n(-c4ccc(Cl)cc4)c(=O)c4sccc43)n2)cc1 | 1280 |
| CC(C)(C)c1ccc(C(=O)NC2CCN(c3cc(-c4ccc(F)cc4)[nH]n3)C2)cc1 (stereo not drawn) | 899 |
| CCn1cc(C)c(C(=O)O)c1CC(=O)NCCN1CCc2ccccc2C1 | 629 |
| Cn1c(C2CCN(S(=O)(=O)c3ccc(F)c(Cl)c3)CC2)cc(=O)n2nccc12 | 722 |
| Cc1c(C(=O)NCC(C)C)cnn1-c1cc(-c2nc(C(C)C)no2)ccn1 | 1010 |
| COCC(=O)N1CCCn2nc(-c3ccccc3)cc2C1 | 669 |
| Cc1cccc(NC(=O)C2CCN(S(=O)(=O)c3cn(C(C)C)cn3)CC2)c1 | 781 |
| CCCN1CCN(C(=O)c2nc(N3CCSCC3)c3cnn(C)c3n2)CC1 | 576 |
| Cc1ccccc1Nc1c(-c2c(F)cccc2Cl)nc2ccc(Cl)cn12 | 984 |
| O=c1c2cnc3nc(-c4ccccc4Cl)nn3c2ccn1CCc1c[nH]c2ccc(F)cc12 | 947 |
| O=C(Nc1ccccc1F)N1CCC(n2cnc3ccc(Cl)cc3c2=O)CC1 | 806 |
| Cc1ccc(S(=O)(=O)N2CCCN(C)c3ccccc32)cc1F | 1100 |
| CCc1nc2cc(N3CCC(C(=O)N(C)Cc4ccco4)CC3)cnc2nc1CC | 755 |
| Cc1nn2c(CNS(=O)(=O)Cc3ccc(C)c(C)c3)c(-c3ccccc3)nc2s1 | 974 |
| CCCc1cc(N2CCN(C(=O)Cc3cccs3)CC2)nc2nnc(C)n12 | 620 |
| CCc1ccccc1NC(=O)C1(C)Oc2cccnc2N(C)C1=O (stereo not drawn) | 814 |
| Cc1ccc(C)c(NC(=O)N2CCC(n3cnc4ccc(Cl)cc4c3=O)CC2)c1 | 929 |
| Cc1ccc(F)c(-n2nnc(C(=O)O)c2-c2ccccn2)c1 | 917 |

| Compound | RP-LC retention time [s] |
| --- | --- |
| COc1ccc2cc(OCC3(C(=O)O)CN(C(=O)c4ccc(F)cc4)C3)ccc2c1 | 969 |
| CCCNc1cc(N2CCCC(CCC(=O)Nc3ccccc3)C2)ncn1 (stereo not drawn) | 703 |
| Cc1csc(-c2cc(S(=O)(=O)NCc3ccc4c(c3)OCO4)cn2CC(=O)N2CCCC2)n1 | 835 |
| Cc1nn(-c2cc(N(C)C)ncn2)c(C)c1CCC(=O)NCc1ccccc1 | 716 |
| O=C(Cc1ccccc1Cl)NC1CCN(c2cc(-c3cccs3)[nH]n2)C1 (stereo not drawn) | 738 |
| O=C(Cn1cccc1-c1nnc(C2CCC2)o1)N1CCc2ccccc21 | 946 |
| COc1ccc(C2Cn3nnc(-c4nc(-c5ccc(Cl)cc5)no4)c3CO2)cc1 (stereo not drawn) | 1240 |
| COc1ccccc1-c1nc2nccc(-c3ccccc3)n2n1 | 862 |
| Fc1ccc(Nc2nc(NCC3CCCO3)nc3c2cnn3-c2ccccc2)cc1 (stereo not drawn) | 1050 |
| COc1ccccc1-c1nnc(C2CCN(C(=O)c3ccccc3)CC2)o1 | 741 |
| Cc1ccccc1-c1noc(N2CCC(C(=O)N3CCOCC3)CC2)n1 | 796 |
| Cn1nc(C(=O)N2CC(n3cc(C(=O)NCC4CC4)nn3)C2)c2ccccc21 | 734 |
| COc1ccc(CNC(=O)CN2CCc3[nH]c4c(C)c(Cl)ccc4c(=O)c3C2)cc1 | 638 |
| Cc1nc(-c2ccc(N3CCN(C(=O)c4cc(F)ccc4F)CC3)nc2)sc1C | 890 |
| Cc1cc2n(n1)CCC(=O)N2CCCC(=O)NCCCN1CCCC(C)C1 (stereo not drawn) | 570 |
| CC(C)NC(=O)c1ccc(OCC2CCCN2C(=O)c2cccs2)cc1 (stereo not drawn) | 818 |
| O=C(NC1CC1)c1ccccc1OCC1CCCN(Cc2ccc3c(c2)CCO3)C1 (stereo not drawn) | 580 |
| O=C(NC1CCCCC1)C1COC2(CCN(C(=O)c3ccco3)CC2)N1C(=O)c1ccccc1 (stereo not drawn) | 748 |
| Cc1ccc(Cn2cc(-c3ccncc3)cc2C(=O)NCC2CC2)cc1 | 705 |
| O=C(c1cc(-c2ccncc2)n[nH]1)N1CCCC(C(=O)N2CCN(C(=O)c3ccco3)CC2)C1 (stereo not drawn) | 556 |
| COc1ccc(Cl)cc1N(C)C(=O)C1CCCN(c2ncnc3c2nc2n3CCCCC2)C1 (stereo not drawn) | 871 |
| CCn1cc(-c2nc(CC(=O)Nc3ccc(Cl)cc3)cs2)c2cccnc21 | 996 |

| Compound | RP-LC retention time [s] |
| --- | --- |
| COc1cccc(-n2cc(C(=O)OCc3cc(=O)n4ccccc4n3)c3ccccc3c2=O)c1 | 866 |
| COCCC(=O)N1CCC(Oc2nccnc2N2CCOCC2)C1 (stereo not drawn) | 613 |
| COCCCNC(=O)C1CCCN(c2cc(=O)n(C)c(=O)n2C)C1 (stereo not drawn) | 585 |
| CCC(=O)Nc1ccc2c(c1)nc(CN1CCOCC1)n2C(C)C | 587 |
| Cc1cccc(-c2nnc(-c3nc(NCCc4cnc[nH]4)c4ccccc4n3)o2)c1 | 672 |
| COc1ccc(OC)c(NC(=O)C2CCCN2S(=O)(=O)c2ccc3c(c2)CC(C)N3C(C)=O)c1 (stereo not drawn) | 863 |
| CC(C(=O)NCCN1CCCC1)n1c2ccccc2c2cnn(C)c(=O)c21 (stereo not drawn) | 607 |
| COc1ccc(OC)c2sc(N(Cc3ccco3)C(=O)Cc3cccs3)nc12 | 1050 |
| Oc1c(C(Nc2ccccc2)c2ccccn2)ccc2cccnc12 (stereo not drawn) | 763 |
| O=C(Nc1ccc(F)c(F)c1)C1CCN(S(=O)(=O)c2ccc(-c3noc(C4CC4)n3)cc2)CC1 | 1050 |
| CCN1C(=O)c2c(C(=O)NCCc3cccc(C)c3)ncn2CC1(C)C(=O)NC1CCCC1 (stereo not drawn) | 819 |
| CCCNC(=O)c1c2c(nc3ccc(C)cc13)CCC2 | 625 |
| O=C(c1cn2c(n1)CCCC2)N(Cc1ccccc1)Cc1ccco1 | 668 |
| Cc1cccc(N2CCN(C(=O)c3ccc(-c4csc(C5CC5)n4)cc3)CC2C)c1 (stereo not drawn) | 1120 |
| CC1CCN(Cc2csc(N3CCN(C(=O)COc4ccccc4)CC3)n2)CC1 | 653 |
| COc1ccc(-c2nc(Cn3c(=O)c4c(C)cc(C)nc4n(C)c3=O)c(C)o2)cc1 | 1200 |
| CC1CCN(S(=O)(=O)c2cccc(-c3cn4cc(Cl)ccc4n3)c2)CC1 | 1000 |
| O=C(C1CCN(S(=O)(=O)c2ccc(-c3noc(/C=C/c4cccs4)n3)cc2)CC1)N1CCCC1 | 1050 |
| O=C(CSc1ccc(N2CCCC(C(=O)NC3CC3)C2)nn1)Nc1ccc2c(c1)OCCO2 (stereo not drawn) | 619 |
| COc1cc(NC(=O)CN2C(=O)CCc3cc(Br)ccc32)cc(OC)c1OC | 820 |
| CCOc1ccc(N2CC(c3nc(-c4cccnc4)no3)CC2=O)cc1 (stereo not drawn) | 759 |
| O=c1c2cnn(-c3ccc(F)cc3)c2ncn1Cc1nc(-c2ccc(Br)cc2)no1 | 1140 |

| Compound | RP-LC retention time [s] |
| --- | --- |
| CCNc1cc(N2CCC(CCC(=O)NCc3ccc(Cl)cc3)CC2)ncn1 | 585 |
| O=C(NCc1ccccc1)C1CCCN(S(=O)(=O)c2cc(-c3noc(C4CCC4)n3)cs2)C1 (stereo not drawn) | 1080 |
| Cc1ccc(CNC(=O)C2CCc3sc(C(=O)N(C)C)cc3C2)cc1 (stereo not drawn) | 692 |
| CCc1nc(N)n(CC(=O)Nc2ccc(Br)cc2)c(=O)c1C | 666 |
| Nc1nc(Cl)nc2c1ncn2[C@@H]1O[C@H](CO)[C@@H](O)[C@H]1O | 590 |
| CCCCNC(=O)C(=O)NCC1OCCc2ccccc21 (stereo not drawn) | 879 |
| CC1CCC(NC(=O)c2sc3ncccc3c2-n2cccc2)CC1 (stereo not drawn) | 1200 |
| CCOC(=O)c1ccc(Nc2c(CC)c(C)nc3nc(-c4ccccc4)nn23)cc1 | 990 |
| CC(=O)N1CCc2cc(-c3ccc(C(=O)N4CCC(C)CC4)cc3)ccc21 | 889 |
| CC1CS(=O)(=O)N(c2ccc(C(=O)N3CCN(c4ccccn4)CC3)cc2)C1=O (stereo not drawn) | 554 |
| C=CCN(C)C(=O)c1cnn2c3c(cnc12)CCCCCC3 | 827 |
| COC(=O)N1CCN(C(=O)Cc2ccc(Cl)c(Cl)c2)C(CN2CCCC2)C1 (stereo not drawn) | 688 |
| CCOC(=O)c1c(S(=O)(=O)N2CCC(C(=O)Nc3ccccc3)CC2)c(C)n(C)c1C | 834 |
| O=C(NCCOc1ccc(F)cc1)C1CN(C(=O)c2cccs2)C1 | 691 |
| Cc1ccc(-c2cn3c(CC(=O)Nc4ccc(C)c(F)c4)csc3n2)cc1C | 933 |
| COC(=O)c1ccc(NC(=O)CC(C)S(=O)(=O)c2ccc3c(c2)NC(=O)CCS3)cc1 (stereo not drawn) | 740 |
| CCCc1cc(N2CCN(C(=O)c3cccc(N(C)C)c3)CC2)nc2nnc(C)n12 | 606 |
| Cc1noc(C)c1CN1CCC(NC(=O)c2cc3ccccc3[nH]2)CC1 | 621 |
| Cc1cccc(NC(=O)N2CCc3[nH]cnc3C2c2ccncc2)c1 (stereo not drawn) | 557 |
| O=c1n(Cc2ccccc2F)nc2ccc(S(=O)(=O)N3CCc4ccccc4C3)cn12 | 984 |
| O=C(CN(CC1CCCO1)C(=O)c1cccc(Br)c1)N1CCNCC1 (stereo not drawn) | 602 |
| COc1cc(OC)cc(N2C=C(C#N)S(=O)(=O)c3ccccc32)c1 | 910 |
